Several values for one entry are separate records, joined by “and”; a condition that tells them apart may be missing. Equal entries are not always repeated. Entries after “also recorded” stand apart in the source; their conditions may differ.
How the values were obtained:
Type in all cases: binding
[1] = biological target: T1, LecA (Pseudomonas aeruginosa, UniProt Q05097); assay: Competitive fluorescence polarization (FP) assay; conditions: for Inhibition in FP: compared to MeGal at 10 mM (16 h); for inhibition at 10000 µM: read-out: Inhibition in FP, compared to MeGal at 10 mM (16 h)
T1 construct: made in house
T1 sequence (Q05097 whole entry): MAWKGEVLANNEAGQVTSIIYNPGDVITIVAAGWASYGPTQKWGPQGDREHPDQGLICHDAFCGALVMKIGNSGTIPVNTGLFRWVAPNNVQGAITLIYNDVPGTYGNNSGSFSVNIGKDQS
Procedure: The FP assay was performed in a black 384-well plate (Greiner Bio-One, Germany, 781900) with the final volume of 20 µL as described previously. Briefly, 10 µL of a sample solution series (10–0.078 mM) in TBS buffer containing 10 mM Ca^2+ (TBS/Ca^2+-buffer) and 20% DMSO were added in technical triplicates to 10 µL LecA (40 µM) preincubated with a galactose-based Cy5 conjugate[68] (20 nM) in TBS/Ca^2+-buffer. […] The plate was sealed (EASYseal, Greiner Bio-One, 676,001), centrifuged (1 min, 1500 rpm, 25 °C) and incubated in a humidity chamber for 16 h. The fluorescence was measured with an excitation 590 nm and emission 675 nm filter[68] on a PheraStar FS plate reader (BMG Labtech GmbH, Germany). The blank signal of TBS/Ca^2+-buffer containing 10% DMSO was subtracted and the compounds were analyzed with the MARS Data Analysis Software (BMG Labtech GmbH Germany) using the four-parameter variable slope model. The top and bottom plateaus were defined according to the positive controls. The graphs were visualized using Graphpad Prism 5. The percentage (%) of inhibition was calculated at the highest concentration compared with 10 mM MeGal set to 100%.

[2] = biological target: T2, 5FW LecA (PA-IL) (Pseudomonas aeruginosa, UniProt Q05097); assay: PrOF NMR with 5-fluorotryptophan-labeled LecA
T2 construct: made in house
T2 sequence (Q05097 2-122): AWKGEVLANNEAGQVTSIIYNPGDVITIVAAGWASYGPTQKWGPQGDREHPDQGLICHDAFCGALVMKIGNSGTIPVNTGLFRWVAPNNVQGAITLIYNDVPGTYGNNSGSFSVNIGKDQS
Procedure: PrOF NMR was performed as reported previously. Briefly, 150 µM 5FW LecA was recorded alone and in the presence of DMSO or 2–4 mM compounds in TBS/Ca^2+ buffer. The difference in chemical shift perturbations of W42 in 5FW LecA free vs bound forms was followed to determine Kd values of compounds. The Kd values were calculated according to the one-site-binding model in Origin(Pro) 2020b (OriginLab Corp., USA) from two or three independent titrations. Ligand efficiency values were calculated according to Eq. (1) for a temperature of 310 K.

[3] = biological target: T3, DC-SIGN CRD (CD209) (Homo sapiens, UniProt Q9NNX6); assay: 1H-15N HSQC NMR with 15N DC-SIGN CRD
T3 construct: the carbohydrate recognition domain (CRD) of DC-SIGN in ^1H-^15N HSQC/TROSY NMR experiments; made in house
T3 sequence (Q9NNX6 263-378 limits assumed): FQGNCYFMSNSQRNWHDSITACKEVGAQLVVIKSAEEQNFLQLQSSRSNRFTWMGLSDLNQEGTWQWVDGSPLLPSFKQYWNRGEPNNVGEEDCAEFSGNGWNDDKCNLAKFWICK
Procedure: (§1) The ^1H-^15N TROSY pulse sequence trosyf3gpphsi19 with 128 increments and 32 scans per increment was applied for 0.15 mM ^15N LecA and 0.07 mM LecB in HBS/Ca^2+ buffer (20 mM HEPES pH 7.4, 150 mM NaCl, 10 mM CaCl2, 10% D2O and 100 µM sodium trimethylsilylpropanesulfonate (DSS) as internal reference) at 310 K. The ^1H-^15N HSQC pulse sequence hsqcf3gpph19 with 128 increments and 8 scans per increment was applied for 0.1 mM ^15N DC-SIGN and Langerin CRD in HBS/Ca^2+ buffer at 298 K. For screening of 650 non-fluorinated fragments of the general library against ^15N LecA, a mix of 10 compounds at 1 mM each was combined with 0.15 mM ^15N LecA in HBS/Ca^2+ buffer (20 mM HEPES pH 7.4, 150 mM NaCl, 10 mM CaCl2, 10% D2O and 100 µM sodium trimethylsilylpropanesulfonate (DSS) as internal reference, whereas the fragments with the MBP scaffolds were validated separately at 1 mM. Similarly, 9 nonfluorinated fragments from the MBP library were screened against ^15N-labeled DC-SIGN, LecA and LecB. To validate the fragment binding to proteins, we recorded ^1H-^15N HSQC and TROSY NMR of proteins in the presence of DMSO as negative control and 2 mM fragments in HBS/Ca^2+ buffer. Natural ligands were used as positive controls at 1 mM MeGal, MeFuc and 30 mM D-mannose to LecA/LecB and DC-SIGN CRD/Langerin CRD, respectively. Titration experiments with ^15N-labeled DC-SIGN CRD or LecB were recorded in HBS/Ca^2+ buffer with 30 mM CaCl2 and 0.25 to 4–8 mM malonic acid derivatives. The Kd values were calculated according to the one-site-binding model in Origin(Pro) 2020b (OriginLab Corp., USA). Ligand efficiency calculations were done according to Eq. (1) for a temperature of 298 K and 310 K for DC-SIGN CRD and LecB, respectively.1 LE=RTlnKd/HA, with the temperature T [K], the gas constant R [kcal mol^−1 K^−1], and the number of non-hydrogen atoms HA[56].
(§2) All data were processed with NMRpipe[65] and analyzed with CcpNmr analysis. For data analysis, the protein fingerprint of ^15N DC-SIGN (Table S7) or Langerin CRD was assigned as reported previously. The ^1H-^15N TROSY resonances of ^15N LecA and ^15N LecB were indexed with IDs due to a lack of protein backbone resonance assignment (Tables S8-S9). Next, resonance IDs from protein spectra were transferred to the spectra obtained in the presence of compounds in order to compare the changes in chemical shift perturbations for the fast exchange peaks. The changes in chemical shift perturbations (CSPs) were calculated according to Eq. (2):2 △δ=1/2△δH2+α△δN^2 in which δ is the difference in chemical shift (in ppm) and α is an empirical weighting factor of 0.14 for all amino acid backbone resonances. The threshold value was set based on three independent measurements of reference spectra to 0.01 ppm for LecA, LecB, DC-SIGN CRD and Langerin CRD.

[4] = biological target: T1, LecA; assay: Competitive 19F T2-filtered NMR with reporter 5; conditions: 0.1 mM 5, 10 mM CaCl2, 3 mM competitor
Procedure: The analogs of 1 (5) and 58 (61) were used as fluorinated spy molecules in ^19F T2-filtered NMR experiments. Two samples containing 0.1 mM 5 or 61 alone or a 10 µM protein in TBS/EDTA buffer followed by addition of 10 mM CaCl2 and the carbohydrates: 1 mM MeGal (LecA), 1 mM MeFuc (LecB/BambL) and 30 mM D-mannose (DC-SIGN/Langerin). Similarly, 0.1 mM 5 was used to prioritize hydroxamate derivatives, where 3 mM analogs of 1 were added to the samples instead of the carbohydrates. The ^19F and ^19F T2-filtered spectra were recorded with 64 scans, a spectral width of 5 ppm, a transmitter offset at −155.5 ppm (5) and −155.5 ppm (61), the acquisition time of 0.8 s, 2 s relaxation time applying a T2-filter of 384 ms. All spectra were analyzed as described above.

[5] = biological target: T1, LecA; assay: SPR with immobilized LecA; conditions: compounds at 0.2 and 1 mM
Procedure: All experiments were performed on a BIACORE X100 instrument (GE Healthcare) at 25 °C in phosphate-buffered saline (10 mM phosphate buffer pH 7.4, 2.7 mM KCl, 137 mM NaCl, 0.05% Tween-20, 100 µM CaCl2, 5% DMSO). LecA was immobilized onto a CM7 chip (BIACORE) following standard amine coupling procedures. The CM7 chip was activated by three injections of a NHS/EDC mixture with a contact time of 540 s at a flow rate of 10 µL min^−1 until the response exceeded 800 RU, followed by multiple injections of LecA dissolved in 10 mM sodium acetate pH 4.5 (100 µg/mL) onto channel 2 (contact time of 540 s at a flow rate of 10 µL min^−1). A minimum of 10,000 RU of LecA was captured onto the chip. Initial binding screens were performed with the injections of 0.2 and 1 mM of each hydroxamate (association 30 s, dissociation 60 s, 30 µL min^−1 flow rate), to identify the initial binders eliciting dose-response behaviors. Injection of the positive control (0.1 mM 4-Nitrophenyl-β-D-galactoside) was included after every forth injection cycle to monitor the activity of immobilized LecA throughout the binding screen experiments. All data evaluation was performed using BIACORE X100 evaluation software (v.2.0).

[6] = biological target: T4, 15N LecA (Pseudomonas aeruginosa, UniProt Q05097); assay: 1H-15N TROSY NMR with 15N LecA; conditions: 4 mM analogs of 1, 1 mM marketed hydroxamates
T4 construct: made in house
T4 sequence (Q05097 whole entry): as the sequence (Q05097 whole entry) above
Procedure: as §1, §2

Cc1ccc(CC(=O)NO)cc1 [compound 9]
Inhibition in FP [1]: 14–16% and 16 ± 2%

O=C(O)C(F)(CC1CCC1)C(=O)O [compound 61]
binding to 5FW LecA (perturbation of W42) in PrOF NMR ([2]; 2 mM compound): perturbed W42; also recorded: strongest perturbation of W42 | W42 [ppm] ([2]; 19F resonance of 0.15 mM 5FW LecA with 2 mM compound, DMSO 120.50): 120.32 ppm | W2 [ppm] ([2]; 19F resonance of 0.15 mM 5FW LecA with 2 mM compound, DMSO 121.43): 121.46 ppm | W33 [ppm] ([2]; 19F resonance of 0.15 mM 5FW LecA with 2 mM compound, DMSO 121.67): 121.73 ppm | W84 [ppm] ([2]; 19F resonance of 0.15 mM 5FW LecA with 2 mM compound, DMSO 123.50): 123.52 ppm | Kd ([3]; 15N DC-SIGN CRD, titration, one-site binding model, 30 mM CaCl2): 1.9 mM | LE ([3]; ligand efficiency calculated from Kd for DC-SIGN CRD, 298 K): 0.28 kcal mol^−1 HA^−1

O=C(CCCCCCC(=O)Nc1ccccc1)NO [compound 47, reference compound]
competition of reporter 5 from LecA (recovery of 19F peak) [4]: did not displace | Efficiency in SPR (normalized binding response) [5]: 3.8% | binding to 15N LecA in TROSY NMR [6]: not tolerated; also recorded: none of the marketed metalloproteinase inhibitors (47, 49, 50) bound; also recorded: no binding

Cc1ccccc1CC(=O)NO [compound 10]
Inhibition in FP [1]: 14–16% and 14 ± 4%

O=C(COCCc1ccccc1)NO [compound 43]
inhibition at 10000 µM [1]: 8 ± 3% | binding to 15N LecA in TROSY NMR [6]: not tolerated

O=C(CCCc1ccccc1)NO [compound 35, N-hydroxy-4-phenylbutanamide]
competition of reporter 5 from LecA (recovery of 19F peak) [4]: recovered; also recorded: displaced | Kd [2]: 4.6 ± 0.9 mM | LE ([2]; ligand efficiency calculated from Kd for LecA, 310 K): 0.26 kcal mol^−1 HA^−1 | inhibition at 10000 µM [1]: 26 ± 1% | binding to 15N LecA in TROSY NMR [6]: preserved the binding
